Measured values: patent publication US6737383B1, “Herbicidal oxadiazolidines” (priority 1999, dated 2004)

Legend:
rape = test: Test B pre/postemergence rape; assay type: in vivo, Brassica napus
How it was run: (§1)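 Test chemicals in a non-phytotoxic solvent mixture with surfactant were sprayed preemergence onto planted seeds and postemergence onto plants 2 to 18 cm tall (1- to 4-leaf stage). After twelve to sixteen days in a greenhouse, injury was visually rated against untreated controls from 0 (no effect) to 10 (complete control).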

purple nutsedge = test: Test B pre/postemergence purple nutsedge; assay type: in vivo, Cyperus rotundus
How it was run: as §1

giant foxtail = test: Test B pre/postemergence giant foxtail; assay type: in vivo, Setaria faberii
How it was run: as §1

duck salad = test: Test B flood test duck salad; assay type: in vivo, Heteranthera limosa; settings: Rate 125 g/ha; Postemergence section (flood test species); scale 0 to 10, 0 no effect, 10 complete control
How it was run: (§2)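 Plants were grown to the 2-leaf stage before treatment with test chemical, then held in a greenhouse for twelve to sixteen days. Injury was visually rated against untreated controls on a 0–10 scale, where 0 is no effect and 10 is complete control.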

blackgrass = test: Test B pre/postemergence blackgrass; assay type: in vivo, Alopecurus myosuroides
How it was run: as §1

pigweed = test: Test B pre/postemergence pigweed; assay type: in vivo, Amaranthus retroflexus
How it was run: as §1

wild oat = test: Test B pre/postemergence wild oat; assay type: in vivo, Avena fatua
How it was run: as §1

sugar beet = test: Test B pre/postemergence sugar beet; assay type: in vivo, Beta vulgaris
How it was run: as §1

wheat = test: Test B pre/postemergence wheat; assay type: in vivo, Triticum aestivum
How it was run: as §1

morningglory = test: Test B pre/postemergence morningglory; assay type: in vivo, Ipomoea hederacea
How it was run: as §1

bedstraw = test: Test B pre/postemergence bedstraw; assay type: in vivo, Galium aparine
How it was run: as §1

velvetleaf = test: Test B pre/postemergence velvetleaf; assay type: in vivo, Abutilon theophrasti
How it was run: as §1

cocklebur = test: Test B pre/postemergence cocklebur; assay type: in vivo, Xanthium strumarium
How it was run: as §1

surinam grass = test: Test B pre/postemergence surinam grass; assay type: in vivo, Brachiaria decumbens
How it was run: as §1

corn = test: Test B pre/postemergence corn; assay type: in vivo, Zea mays
How it was run: as §1

crabgrass = test: Test B pre/postemergence crabgrass; assay type: in vivo, Digitaria sanguinalis
How it was run: as §1

soybean = test: Test B pre/postemergence soybean; assay type: in vivo, Glycine max
How it was run: as §1

rice = test: Test B flood test rice; assay type: in vivo, Oryza sativa; settings: Rate 125 g/ha; Postemergence section (flood test species); scale 0 to 10, 0 no effect, 10 complete control
How it was run: as §2

[1] = Postemergence, Rate 62 g/ha, scale 0 to 10, 0 is no effect, 10 is complete control
[2] = Postemergence, Rate 250 g/ha, scale 0 to 10, 0 no effect, 10 complete control
[3] = Preemergence, Rate 62 g/ha, scale 0 to 10, 0 is no effect, 10 is complete control
[4] = Preemergence, Rate 125 g/ha, scale 0 to 10 (0 no effect, 10 complete control)
[5] = Preemergence, Rate 250 g/ha, scale of 0 to 10 where 0 is no effect and 10 is complete control
[6] = Preemergence, Rate 500 g/ha, scale 0 (no effect) to 10 (complete control)
[7] = Rate 125 g/ha, Postemergence, scale 0 to 10, 0 no effect, 10 complete control
[8] = Rate 500 g/ha, Postemergence, scale 0 to 10, 0 no effect, 10 complete control

COc1ccc(N(C(=O)n2oc(=O)n(-c3ccccc3C)c2=O)C(C)C)cc1 [Compound 49]
7: Plant response rating, Crabgrass (crabgrass; [4])
5: Bedstraw plant response rating (bedstraw; [2])
1: Giant foxtail plant response rating (giant foxtail; [1]) | Crabgrass plant response rating (crabgrass; [7]) | Soybean plant response rating (soybean; [1]) | Soybean plant response rating (soybean; [2]) | Soybean plant response rating (soybean; [7]) | Soybean plant response rating (soybean; [8])
9: Giant foxtail plant response rating (giant foxtail; [2]) | Giant foxtail plant response rating (giant foxtail; [8]) | Plant response rating, Crabgrass (crabgrass; [5]) | Crabgrass plant response rating (crabgrass; [6]) | Crabgrass plant response rating (crabgrass; [8])
3: Morningglory plant response rating (morningglory; [8])
10: Plant response rating, Giant foxtail (giant foxtail; [5]) | Giant foxtail plant response rating (giant foxtail; [6])
4: Giant foxtail plant response rating (giant foxtail; [7])
0: Rape plant response rating (rape; [1]) | Rape plant response rating (rape; [2]) | Plant response rating, Rape (rape; [3]) | Plant response rating, Rape (rape; [4]) | Plant response rating, Rape (rape; [5]) | Rape plant response rating (rape; [6]) | Rape plant response rating (rape; [7]) | Rape plant response rating (rape; [8]) | Nutsedge plant response rating (purple nutsedge; [1]) | Nutsedge plant response rating (purple nutsedge; [2]) | Plant response rating, Nutsedge (purple nutsedge; [3]) | Plant response rating, Nutsedge (purple nutsedge; [4]) | Plant response rating, Nutsedge (purple nutsedge; [5]) | Nutsedge plant response rating (purple nutsedge; [6]) | Nutsedge plant response rating (purple nutsedge; [7]) | Nutsedge plant response rating (purple nutsedge; [8]) | Ducksalad plant response rating (duck salad) | Blackgrass plant response rating (blackgrass; [1]) | Blackgrass plant response rating (blackgrass; [2]) | Plant response rating, Blackgrass (blackgrass; [3]) | Plant response rating, Blackgrass (blackgrass; [4]) | Plant response rating, Blackgrass (blackgrass; [5]) | Blackgrass plant response rating (blackgrass; [6]) | Blackgrass plant response rating (blackgrass; [7]) | Blackgrass plant response rating (blackgrass; [8]) | Redroot pigweed plant response rating (pigweed; [1]) | Redroot pigweed plant response rating (pigweed; [2]) | Plant response rating, Redroot pigweed (pigweed; [3]) | Plant response rating, Redroot pigweed (pigweed; [4]) | Plant response rating, Redroot pigweed (pigweed; [5]) | Redroot pigweed plant response rating (pigweed; [6]) | Redroot pigweed plant response rating (pigweed; [7]) | Redroot pigweed plant response rating (pigweed; [8]) | Wild oats plant response rating (wild oat; [1]) | Wild oats plant response rating (wild oat; [2]) | Plant response rating, Wild oats (wild oat; [4]) | Plant response rating, Wild oats (wild oat; [5]) | Wild oats plant response rating (wild oat; [6]) | Wild oats plant response rating (wild oat; [7]) | Wild oats plant response rating (wild oat; [8]) | Sugarbeets plant response rating (sugar beet; [1]) | Sugarbeets plant response rating (sugar beet; [2]) | Plant response rating, Sugarbeets (sugar beet; [3]) | Plant response rating, Sugarbeets (sugar beet; [4]) | Plant response rating, Sugarbeets (sugar beet; [5]) | Sugarbeets plant response rating (sugar beet; [6]) | Sugarbeets plant response rating (sugar beet; [7]) | Sugarbeets plant response rating (sugar beet; [8]) | Wheat plant response rating (wheat; [1]) | Wheat plant response rating (wheat; [2]) | Plant response rating, Wheat (wheat; [3]) | Plant response rating, Wheat (wheat; [4]) | Plant response rating, Wheat (wheat; [5]) | Wheat plant response rating (wheat; [6]) | Wheat plant response rating (wheat; [7]) | Wheat plant response rating (wheat; [8]) | Morningglory plant response rating (morningglory; [1]) | Morningglory plant response rating (morningglory; [2]) | Plant response rating, Morningglory (morningglory; [3]) | Plant response rating, Morningglory (morningglory; [4]) | Plant response rating, Morningglory (morningglory; [5]) | Morningglory plant response rating (morningglory; [6]) | Morningglory plant response rating (morningglory; [7]) | Bedstraw plant response rating (bedstraw; [1]) | Plant response rating, Bedstraw (bedstraw; [3]) | Plant response rating, Bedstraw (bedstraw; [4]) | Plant response rating, Bedstraw (bedstraw; [5]) | Bedstraw plant response rating (bedstraw; [6]) | Bedstraw plant response rating (bedstraw; [7]) | Velvetleaf plant response rating (velvetleaf; [1]) | Velvetleaf plant response rating (velvetleaf; [2]) | Plant response rating, Velvetleaf (velvetleaf; [3]) | Plant response rating, Velvetleaf (velvetleaf; [4]) | Plant response rating, Velvetleaf (velvetleaf; [5]) | Velvetleaf plant response rating (velvetleaf; [6]) | Velvetleaf plant response rating (velvetleaf; [7]) | Velvetleaf plant response rating (velvetleaf; [8]) | Cocklebur plant response rating (cocklebur; [1]) | Cocklebur plant response rating (cocklebur; [2]) | Plant response rating, Cocklebur (cocklebur; [3]) | Plant response rating, Cocklebur (cocklebur; [4]) | Plant response rating, Cocklebur (cocklebur; [5]) | Cocklebur plant response rating (cocklebur; [6]) | Cocklebur plant response rating (cocklebur; [7]) | Cocklebur plant response rating (cocklebur; [8]) | B. signalgrass plant response rating (surinam grass; [1]) | B. signalgrass plant response rating (surinam grass; [2]) | Plant response rating, B. signalgrass (surinam grass; [3]) | Plant response rating, B. signalgrass (surinam grass; [4]) | Plant response rating, B. signalgrass (surinam grass; [5]) | B. signalgrass plant response rating (surinam grass; [6]) | B. signalgrass plant response rating (surinam grass; [7]) | B. signalgrass plant response rating (surinam grass; Rate 500 g/ha, Postemergence, scale of 0 to 10 where 0 is no effect and 10 is complete control) | Corn plant response rating (corn; [1]) | Corn plant response rating (corn; [2]) | Plant response rating, Corn (corn; [3]) | Plant response rating, Corn (corn; [4]) | Plant response rating, Corn (corn; [5]) | Corn plant response rating (corn; [6]) | Corn plant response rating (corn; [7]) | Corn plant response rating (corn; [8]) | Crabgrass plant response rating (crabgrass; [1]) | Plant response rating, Soybean (soybean; [3]) | Plant response rating, Soybean (soybean; [4]) | Plant response rating, Soybean (soybean; [5]) | Soybean plant response rating (soybean; [6]) | Rice plant response rating (rice)
8: Plant response rating, Giant foxtail (giant foxtail; [3]) | Plant response rating, Giant foxtail (giant foxtail; [4]) | Crabgrass plant response rating (crabgrass; [2])
2: Plant response rating, Crabgrass (crabgrass; [3])
